pIC50: −log10 of the molar value. Read-outs that look alike come from different tables or passages of the source.

Assay [1] addresses T1, DPIV (Homo sapiens, UniProt P27487). The experiment in a line: DPIV inhibition assay (L-alanyl-L-proline-para-nitroanilide substrate, absorbance at 410 nm).
Procedure: (§1) The inhibitor solution was prepared by dissolving 3-5 mg of inhibitor in pH 2 solution (0.01 N HCl), such that the concentration of the solution was equal to 1 mg/10 μL. A 10 μL sample of this solution was then added to 990 μL of pH 8 buffer (0.1 M HEPES, 0.14 M NaCl), and the solution was allowed to stand at room temperature overnight.
(§2) The substrate solution was prepared by dissolving 2.0 mg of L-alanyl-L-proline-para-nitroanilide into 20 mL of pH 8 buffer.
(§3) 250 μL of enzyme solution was added to well #B1 to #H1, #A2 to #H2, and #A3 to #H3 of a 96 well plate, while well #A1 received 250 μL of pH 8 buffer instead of enzyme solution. 90 μL of pH 8 buffer was then added to column 5 (from well #A5 to #H5).
(§4) A 1:10 dilution was then performed by adding inhibitor solution to #A5 and the solution was mixed well before transferring 10 μL of this solution from #A5 to #B5. The solution in #B5 was then mixed well before transferring 10 μL of this solution from #B5 to #C5. The solution in #C5 was then mixed well before transferring 10 μL of this solution from #C5 to #D5. The solution in #D5 was then mixed well before transferring 10 μL of this solution from #D5 to #E5. The solution in #E5 was then mixed well before transferring 10 μL of this solution from #E5 to #F5. The solution in #F5 was then mixed well before transferring 10 μL of this solution from #F5 to #G5. The solution in #G5 was then mixed well before transferring 10 μL of this solution from #G5 to #H5.
(§5) A 30 μL aliquot was then transferred from #H5 to #H3 for row H, and the contents were mixed well. The analogous procedure was repeated for rows G, F, E, D, C, B, and A sequentially. The plate was then shaken on a plate shaker for 5 minutes before allowing the plate to incubate at room temperature for an additional 5 minutes.
(§6) Once the plate had been allowed to incubate, 30 μL of substrate was added to each well except well #A1. The plate was then placed on a plate shaker for 5 minutes before allowing the plate to incubate at room temperature for 25 minutes. The absorbance was then immediately read at a wavelength of 410 nm.
In assay [2] the target is DP9 (Homo sapiens, UniProt Q86TI2). The experiment in a line: Dipeptidyl peptidase 9 inhibition assay (Example 1 assay with DP9 substituted for DPIV). The class given is biochemical. The following applies: for DP9/DPIV ratio: ratio of IC50 values, selectivity for DPIV. As for the experimental part:
In this example, the assay was conducted for DPIV and DP9. The ratio of IC50 values for each tested compound was calculated in order to determine the selectivity for the DPIV isoform. IC50 values were measured at the same pH throughout the assay.

Assay [3] deals with DP8 (Homo sapiens, UniProt Q6V1X1). The experiment in a line: Dipeptidyl peptidase 8 inhibition assay (Example 1 assay with DP8 substituted for DPIV). The class given is biochemical. The following applies: at the pH values tested. As for the experimental part: L-Ala-[5-(HOCH2)-2-boroPro] was also tested to determine its inhibition of dipeptidyl peptidases 8 and 9 (DP8 and DP9). The assay is the same as that described in Example 1, except that DP8 or DP9 was substituted for DPIV.
DP8, sequence (Q6V1X1 whole entry, species assumed): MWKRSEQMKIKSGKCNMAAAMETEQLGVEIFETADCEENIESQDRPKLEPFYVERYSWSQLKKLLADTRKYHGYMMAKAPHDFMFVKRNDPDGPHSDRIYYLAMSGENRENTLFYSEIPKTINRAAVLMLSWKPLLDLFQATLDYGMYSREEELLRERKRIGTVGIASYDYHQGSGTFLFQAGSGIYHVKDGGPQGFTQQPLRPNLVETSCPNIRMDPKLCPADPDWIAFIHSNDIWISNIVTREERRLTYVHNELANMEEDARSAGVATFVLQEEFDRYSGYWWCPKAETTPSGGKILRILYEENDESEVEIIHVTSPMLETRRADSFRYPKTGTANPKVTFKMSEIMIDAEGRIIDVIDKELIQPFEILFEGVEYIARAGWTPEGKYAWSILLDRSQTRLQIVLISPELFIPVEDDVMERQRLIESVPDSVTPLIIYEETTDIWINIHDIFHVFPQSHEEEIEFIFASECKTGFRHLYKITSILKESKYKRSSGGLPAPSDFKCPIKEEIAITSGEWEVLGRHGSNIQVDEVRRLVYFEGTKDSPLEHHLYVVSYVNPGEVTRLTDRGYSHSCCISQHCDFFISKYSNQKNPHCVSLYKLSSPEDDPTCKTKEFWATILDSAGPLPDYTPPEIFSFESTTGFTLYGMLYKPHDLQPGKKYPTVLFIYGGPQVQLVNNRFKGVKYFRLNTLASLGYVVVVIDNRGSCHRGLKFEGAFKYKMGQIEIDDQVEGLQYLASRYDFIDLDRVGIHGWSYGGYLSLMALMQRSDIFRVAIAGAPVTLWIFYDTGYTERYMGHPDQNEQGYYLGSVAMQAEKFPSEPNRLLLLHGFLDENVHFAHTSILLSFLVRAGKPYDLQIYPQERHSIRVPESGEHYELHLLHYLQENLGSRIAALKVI

Assay [4] addresses T1, DPIV. The note with it: pH 8.
Procedure: as §1, §2, §3, §4, §5, §6
Where [5] appears, read: Example 6, same pH throughout the assay (pH not stated), read-out: DP9 IC50.
The mark [6] stands for this setting: read-out: DPIV IC50, Example 6, same pH throughout the assay (pH not stated).

T1 sequence (P27487 whole entry): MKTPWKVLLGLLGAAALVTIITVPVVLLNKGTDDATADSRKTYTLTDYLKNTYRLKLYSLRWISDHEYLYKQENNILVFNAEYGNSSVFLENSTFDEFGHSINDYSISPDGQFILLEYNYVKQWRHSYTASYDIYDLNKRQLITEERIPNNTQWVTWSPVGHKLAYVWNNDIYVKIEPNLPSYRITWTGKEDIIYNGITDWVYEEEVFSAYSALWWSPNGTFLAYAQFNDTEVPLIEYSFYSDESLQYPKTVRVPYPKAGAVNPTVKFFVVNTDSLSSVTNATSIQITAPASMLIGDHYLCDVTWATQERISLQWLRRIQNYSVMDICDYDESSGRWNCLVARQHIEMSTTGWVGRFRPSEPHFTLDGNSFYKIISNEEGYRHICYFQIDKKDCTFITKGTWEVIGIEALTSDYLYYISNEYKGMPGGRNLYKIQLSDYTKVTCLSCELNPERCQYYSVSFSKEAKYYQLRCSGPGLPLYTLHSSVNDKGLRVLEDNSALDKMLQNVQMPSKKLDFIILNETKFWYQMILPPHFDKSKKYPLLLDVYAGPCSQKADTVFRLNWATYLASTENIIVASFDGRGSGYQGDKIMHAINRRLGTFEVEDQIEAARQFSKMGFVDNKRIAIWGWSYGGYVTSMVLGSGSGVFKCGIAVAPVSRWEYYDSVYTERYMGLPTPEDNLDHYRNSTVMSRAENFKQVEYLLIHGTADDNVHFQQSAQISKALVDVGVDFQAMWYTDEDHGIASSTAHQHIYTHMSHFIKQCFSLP
DP9, sequence (Q86TI2 whole entry, species assumed, canonical isoform): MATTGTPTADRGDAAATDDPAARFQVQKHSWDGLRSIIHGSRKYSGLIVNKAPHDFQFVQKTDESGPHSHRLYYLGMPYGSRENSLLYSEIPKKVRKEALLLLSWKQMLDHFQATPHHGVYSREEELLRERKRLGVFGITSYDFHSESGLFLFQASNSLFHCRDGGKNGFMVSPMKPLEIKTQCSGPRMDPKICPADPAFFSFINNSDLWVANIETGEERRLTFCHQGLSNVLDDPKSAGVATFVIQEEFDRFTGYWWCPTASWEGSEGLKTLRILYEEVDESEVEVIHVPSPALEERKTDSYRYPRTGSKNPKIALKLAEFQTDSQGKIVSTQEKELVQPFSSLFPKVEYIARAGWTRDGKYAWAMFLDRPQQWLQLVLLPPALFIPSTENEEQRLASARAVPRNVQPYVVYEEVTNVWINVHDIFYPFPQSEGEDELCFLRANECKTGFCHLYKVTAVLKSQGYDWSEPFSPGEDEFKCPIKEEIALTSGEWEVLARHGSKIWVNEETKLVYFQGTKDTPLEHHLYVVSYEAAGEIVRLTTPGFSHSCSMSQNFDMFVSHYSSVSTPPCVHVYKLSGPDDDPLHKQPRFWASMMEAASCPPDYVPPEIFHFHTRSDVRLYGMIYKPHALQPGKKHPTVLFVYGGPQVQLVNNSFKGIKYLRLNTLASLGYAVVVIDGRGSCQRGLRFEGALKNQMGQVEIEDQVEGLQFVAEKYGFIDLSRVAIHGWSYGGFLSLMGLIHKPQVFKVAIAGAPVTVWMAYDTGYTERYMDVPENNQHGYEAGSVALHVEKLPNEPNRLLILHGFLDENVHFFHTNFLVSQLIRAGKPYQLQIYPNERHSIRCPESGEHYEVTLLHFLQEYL

In general, pIC50 refers to the negative decadic logarithm of the IC50, by convention in mol/L. The molecule `CC[C@H](NC(=O)[C@@H](N)CCC(=O)O)B(O)O` [Glu-boroEtg] showed a negative-log IC50 (pIC50) in assay [1] (IC50, DPIV, pH 8) of 7.31.

Turning to `C[C@H](NC(=O)[C@@H](N)CC(=O)O)B(O)O` [Asp-boroAla], the pIC50 in assay [2] (setting [5]) was 2.30; in assay [1] (setting [6]), 3.10. In addition, in assay [2], the DP9/DPIV ratio is given as 6.28.

With `CC1CC[C@@H](B(O)O)N1C(=O)[C@H](C)N` (stereo partly drawn) [L-Ala-5-Me-boroPro], the pIC50 was 7.96 in assay [1] (IC50 at pH 2, DPIV, pH 2) and 4.81 in assay [1] (IC50 at pH 8, DPIV, pH 8).

With Arg-boroEtGly, the negative logarithm of the IC50 (pIC50) in assay [2] (setting [5]) is 8.15; in assay [1] (setting [6]), 8.00. In addition, the DP9/DPIV ratio in assay [2] is given as 0.70.

By IC50 is commonly meant the midpoint of a concentration-inhibition curve. Read a high IC50 as weaker potency. Consider `N=C(N)NCCC[C@H](N)C(=O)N1CCC[C@H]1B(O)O` [Arg-boroPro], for which, in assay [2] (setting [5]), the pIC50 is 6.08. For the same molecule, in assay [2], the DP9/DPIV ratio is 412. In assay [1] (DPIV IC50 (nM), Example 6, same pH throughout the assay (pH not stated)), this molecule registered a half-inhibitory concentration (IC50) of 2 nM.

Regarding `C[C@H](N)C(=O)N1C(CO)CCC1B(O)O` (stereo partly drawn) [L-Ala-[5-(HOCH2)-2-boroPro]], the negative logarithm of the IC50 (pIC50) in assay [2] (DP9, at the pH values tested, read-out: IC50) was under 4.15; in assay [2] (setting [5]), 1.55; in assay [3] it was under 4.15; in assay [1] (setting [6]), 7.40; in assay [1] (read-out: IC50 at pH 2, DPIV, pH 2) it was 7.66; in assay [1] (read-out: IC50 at pH 8, DPIV, pH 8), 4.89. Moreover, in assay [2] (in words, based on the IC50 ratios of Example 6), the “selectivity for DPIV over DP9” value was “highly selective for DPIV”. Also, the DP9/DPIV ratio in assay [2] is reported as 700,000.

As for `C[C@H](NC(=O)[C@@H](N)CCCN=C(N)N)B(O)O` [Arg-boroAla], the pIC50 is 7.64 in assay [2] (setting [5]) and 8.10 in assay [1] (setting [6]). Also, in assay [2], the DP9/DPIV ratio worked out at 2.88.

Consider `N[C@@H](CCC(=O)O)C(=O)N1CCC[C@H]1B(O)O` [Glu-boroPro], for which the pIC50 in assay [4] is 5.62; in assay [1] (setting [6]), 8.52.

Values taken from patent US20140018545A1, “Inhibitors of Dipeptidylpeptidase IV” (Trustees of Tufts College, priority 2004, published 2014).
